This note sets out measurements from patent publication US10047074B2, “Pharmaceutical compound” (IOmet Pharma Ltd., priority 2014, dated 2018).

One experiment addresses T1, TDO (A172) (Homo sapiens, UniProt P48775).
T1 construct: This assay utilised cancer cells which expressed either TDO (A172) or IDO (SKOV3); endogenous in cells; host or cells: A172 (human glioblastoma)
Description: A172 Kynurenine cell based assay. The conditions noted are these: A172 human glioblastoma cells expressing TDO; kynurenine production, 48 hours. Here is the method: (§1) Exemplary compounds of the invention were prepared, and tested to determine their effect as TDO and/or IDO inhibitors. Two different assays were employed: 1. a cell-based assay for detecting the effect of test compounds on kynurenine production in two different cancer cell types. This assay utilised cancer cells which expressed either TDO (A172) or IDO (SKOV3) and as such was used as a means of testing compound activity at these two enzymes in a cell-based context. 2. a TDO and IDO biochemical coupled assay which utilised recombinantly produced and purified TDO and IDO enzymes in combination with the enzyme formamidase. This coupled enzyme system allowed conversion of N-formylkynurenine produced by TDO or IDO activity to kynurenine which was then quantified by fluorescence following addition of Erhlich's Reagent The protocols for these are set out below.
(§2) Cell Based Assay for Detection of Kynurenine Produced by TDO and/or IDO
A172 (human glioblastoma) and SKOV3 (human ovarian adenocarcinoma) cells were seeded in a 96 well plate at 30,000 or 40,000 cells per well respectively in phenol red-free RPMI supplemented with 10% FCS, 2 mM L-glutamine and 500 µM L-tryptophan. IDO expression was induced in the SKOV3 cells by the addition of 500 ng/ml IFN-γ. Cells were incubated at 37° C. with or without the addition of test compound. After 48 hours, the cells were removed by centrifugation and Erhlich's reagent was added to the supernatant. The Erhlich's reagent was incubated for 5 minutes before the absorbance was read at 490 nm.

In another experiment the target is T2, IDO (SKOV3) (Homo sapiens, UniProt P14902).
T2 construct: IDO expression was induced in the SKOV3 cells by the addition of 500 ng/ml IFN-γ; endogenous in cells; host or cells: SKOV3 (human ovarian adenocarcinoma), IFN-γ induced
Description: SKOV3 Kynurenine cell based assay. The conditions noted are these: SKOV3 human ovarian adenocarcinoma cells, IDO induced by IFN-γ; kynurenine production, 48 hours. The method, then: as §1, §2
A172 (human glioblastoma) and SKOV3 (human ovarian adenocarcinoma) cells were seeded in a 96 well plate at 30,000 or 40,000 cells per well respectively in phenol red-free RPMI supplemented with 10% FCS, 2 mM L-glutamine and 500 µM L-tryptophan. IDO expression was induced in the SKOV3 cells by the addition of 500 ng/ml IFN-γ. Cells were incubated at 37° C. with or without the addition of test compound. After 48 hours, the cells were removed by centrifugation and Erhlich's reagent was added to the supernatant.

T2 sequence (P14902 whole entry): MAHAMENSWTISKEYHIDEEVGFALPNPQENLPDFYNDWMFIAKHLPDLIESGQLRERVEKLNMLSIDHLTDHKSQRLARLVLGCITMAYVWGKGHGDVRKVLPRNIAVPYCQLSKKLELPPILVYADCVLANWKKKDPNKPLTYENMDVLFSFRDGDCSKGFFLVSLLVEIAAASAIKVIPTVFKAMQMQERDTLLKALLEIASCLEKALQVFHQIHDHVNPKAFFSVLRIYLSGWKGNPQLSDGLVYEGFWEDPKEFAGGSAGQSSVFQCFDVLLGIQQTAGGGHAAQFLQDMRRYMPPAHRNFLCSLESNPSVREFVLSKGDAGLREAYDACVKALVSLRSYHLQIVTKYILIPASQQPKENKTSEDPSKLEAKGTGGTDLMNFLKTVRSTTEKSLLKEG
T1 sequence (P48775 whole entry): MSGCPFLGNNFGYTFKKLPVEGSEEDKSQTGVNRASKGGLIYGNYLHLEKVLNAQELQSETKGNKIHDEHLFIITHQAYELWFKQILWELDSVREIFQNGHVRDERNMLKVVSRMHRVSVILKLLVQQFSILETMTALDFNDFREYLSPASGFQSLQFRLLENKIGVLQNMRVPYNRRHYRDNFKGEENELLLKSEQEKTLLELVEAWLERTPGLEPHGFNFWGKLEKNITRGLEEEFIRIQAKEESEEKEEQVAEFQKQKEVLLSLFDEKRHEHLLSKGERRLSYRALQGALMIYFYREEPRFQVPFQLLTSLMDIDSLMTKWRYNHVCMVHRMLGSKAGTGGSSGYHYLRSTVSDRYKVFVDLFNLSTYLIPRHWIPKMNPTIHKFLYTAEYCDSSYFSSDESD

In the case of `Nc1oncc1-c1ccc(Cl)cc1` [Compound 2], the “A172 Kynurenine cell based assay pIC50” value on TDO (A172) was “+++ (+++ = pIC50 ≥ 5.50)”. Further, the “SKOV3 Kynurenine cell based assay pIC50” value at IDO (SKOV3) is on record as “++ (++ = pIC50 4.50-5.49)”.
For the compound `Cc1ccc(-c2cnoc2N)cc1` [Compound 3], the “A172 Kynurenine cell based assay pIC50” value at TDO (A172) was “+++ (+++ = pIC50 ≥ 5.50)”. The “SKOV3 Kynurenine cell based assay pIC50” value at IDO (SKOV3) is listed as “++ (++ = pIC50 4.50-5.49)”.
For the compound `COc1ccc(-c2cnoc2N)cc1` [Compound 4], the “A172 Kynurenine cell based assay pIC50” value on TDO (A172) is given as “++ (++ = pIC50 4.50-5.49)”. The “SKOV3 Kynurenine cell based assay pIC50” value at IDO (SKOV3) is “++ (++ = pIC50 4.50-5.49)”.
For the compound `Cc1noc(N)c1-c1ccc(F)cc1` [Compound 6], the “A172 Kynurenine cell based assay pIC50” value at TDO (A172) is listed as “++ (++ = pIC50 4.50-5.49)”. Moreover, the “SKOV3 Kynurenine cell based assay pIC50” value at IDO (SKOV3) was “+/− (+/− = pIC50 < 4.00)”.
With `CC(C)(C)C(=O)Nc1oncc1-c1ccc(F)cc1` [Compound 8], on TDO (A172), the “A172 Kynurenine cell based assay pIC50” value is listed as “+/− (+/− = pIC50 < 4.00)”. Moreover, on IDO (SKOV3), the “SKOV3 Kynurenine cell based assay pIC50” value is recorded as “++ (++ = pIC50 4.50-5.49)”.
In the case of `Cc1noc(N)c1-c1ccc(Cl)cc1` [Compound 9], at TDO (A172), the “A172 Kynurenine cell based assay pIC50” value is “++ (++ = pIC50 4.50-5.49)”. In addition, the “SKOV3 Kynurenine cell based assay pIC50” value at IDO (SKOV3) is given as “+ (+ = pIC50 4.00-4.49)”.
Consider `Cc1noc(N)c1-c1ccccc1` [Compound 10], for which the “A172 Kynurenine cell based assay pIC50” value at TDO (A172) is listed as “++ (++ = pIC50 4.50-5.49)”. The “SKOV3 Kynurenine cell based assay pIC50” value on IDO (SKOV3) was “+ (+ = pIC50 4.00-4.49)”.
With `Nc1oncc1-c1ccccn1` [Compound 11], on TDO (A172), the “A172 Kynurenine cell based assay pIC50” value is “++ (++ = pIC50 4.50-5.49)”. In addition, the “SKOV3 Kynurenine cell based assay pIC50” value on IDO (SKOV3) is given as “+ (+ = pIC50 4.00-4.49)”.
Consider `Nc1oncc1-c1ccc(F)c(F)c1` [Compound 12], for which, at TDO (A172), the “A172 Kynurenine cell based assay pIC50” value was “+++ (+++ = pIC50 ≥ 5.50)”. Further, at IDO (SKOV3), the “SKOV3 Kynurenine cell based assay pIC50” value is “++ (++ = pIC50 4.50-5.49)”.
On the same counts, the results for `Nc1oncc1-c1ccc(F)cc1F` [Compound 14] are “++ (++ = pIC50 4.50-5.49)” and “++ (++ = pIC50 4.50-5.49)”.
For the compound `Nc1oncc1-c1ccccc1Cl` [Compound 15], the “A172 Kynurenine cell based assay pIC50” value on TDO (A172) is reported as “+ (+ = pIC50 4.00-4.49)”. Moreover, at IDO (SKOV3), the “SKOV3 Kynurenine cell based assay pIC50” value is “++ (++ = pIC50 4.50-5.49)”.
In the case of `Nc1oncc1-c1cccnc1` [Compound 16], the “A172 Kynurenine cell based assay pIC50” value at TDO (A172) is “++ (++ = pIC50 4.50-5.49)”. Also, the “SKOV3 Kynurenine cell based assay pIC50” value on IDO (SKOV3) is recorded as “++ (++ = pIC50 4.50-5.49)”.
Take `O=C(Nc1oncc1-c1ccccc1)c1ccccc1` [Compound 18]: the “A172 Kynurenine cell based assay pIC50” value at TDO (A172) is given as “++ (++ = pIC50 4.50-5.49)”. For the same compound, on IDO (SKOV3), the “SKOV3 Kynurenine cell based assay pIC50” value is on record as “++ (++ = pIC50 4.50-5.49)”.
Regarding `O=C(Cc1ccccc1)Nc1oncc1-c1ccccc1` [Compound 19], the “A172 Kynurenine cell based assay pIC50” value at TDO (A172) is on record as “+ (+ = pIC50 4.00-4.49)”. Also, the “SKOV3 Kynurenine cell based assay pIC50” value at IDO (SKOV3) was “++ (++ = pIC50 4.50-5.49)”.
With `Nc1oncc1-c1ccccc1F` [Compound 20], the “A172 Kynurenine cell based assay pIC50” value on TDO (A172) is recorded as “++ (++ = pIC50 4.50-5.49)”. For the same compound, the “SKOV3 Kynurenine cell based assay pIC50” value at IDO (SKOV3) is on record as “++ (++ = pIC50 4.50-5.49)”.
For the compound `CNc1oncc1-c1ccccc1` [Compound 21], the “A172 Kynurenine cell based assay pIC50” value on TDO (A172) is listed as “++ (++ = pIC50 4.50-5.49)”. For the same compound, the “SKOV3 Kynurenine cell based assay pIC50” value at IDO (SKOV3) is recorded as “++ (++ = pIC50 4.50-5.49)”.
For `Oc1oncc1-c1ccccc1` [Compound 23], the “A172 Kynurenine cell based assay pIC50” value at TDO (A172) is “++ (++ = pIC50 4.50-5.49)”. For the same compound, the “SKOV3 Kynurenine cell based assay pIC50” value on IDO (SKOV3) is “+/− (+/− = pIC50 < 4.00)”.
`O=C(CC1CCCCC1)Nc1oncc1-c1ccccc1` [Compound 24]: the “A172 Kynurenine cell based assay pIC50” value on TDO (A172) is given as “++ (++ = pIC50 4.50-5.49)”. Also, at IDO (SKOV3), the “SKOV3 Kynurenine cell based assay pIC50” value is “++ (++ = pIC50 4.50-5.49)”.
Regarding `COCC(=O)Nc1oncc1-c1ccccc1` [Compound 25], the “A172 Kynurenine cell based assay pIC50” value at TDO (A172) is “+++ (+++ = pIC50 ≥ 5.50)”. For the same compound, at IDO (SKOV3), the “SKOV3 Kynurenine cell based assay pIC50” value was “++ (++ = pIC50 4.50-5.49)”.
On the same counts, the results for `O=C(Nc1oncc1-c1ccccc1)C1CC1` [Compound 27] are “++ (++ = pIC50 4.50-5.49)” and “++ (++ = pIC50 4.50-5.49)”.
